Source: patent US20110183978A1, “Phenylpyri(mi)dinylazoles” (Bayer CropScience AG, priority 2009, published 2011)
Read-outs that look alike come from different tables or passages of the source.

How the values were obtained:
[1] = tested on: Sphaerotheca fuliginea; assay: Example D: in vivo test on Sphaerotheca fuliginea (powdery mildew on cucumber); conditions: Podosphaera fuliginea, 288 h, cucumber plants sprayed 24 hours before inoculation, scored after 12 days, read-out: % Wirkungsgrad
Outline: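 Cucumber plants at cotyledon stage Z10 were sprayed with the compound suspended in acetone/Tween/DMSO diluted with water. After 24 hours they were inoculated with Sphaerotheca fuliginea spores (100,000/ml) and incubated at ca. 20/25° C. and 60/70% RH. Disease was scored after 12 days against untreated sprayed controls.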

[2] = tested on: Pyrenophora teres; assay: Example E: in vivo test on Pyrenophora teres (barley net blotch disease); conditions: Pyrenophora teres, 288 h, barley plants sprayed 24 hours before inoculation, scored after 12 days, read-out: % Wirkungsgrad
Method: In Vivo Test on Pyrenophora Teres (Barley Net Blotch Disease) An aqueous suspension of the active substance was prepared by homogenization of a mixture of acetone/Tween/dimethyl sulphoxide and subsequent dilution with water to the desired concentration. Barley plants (variety: Plaisant) are sown in cultivation dishes on a peat-pozzolanic earth substrate (50/50) at 12° C. and sprayed at the first-leaf stage (10 cm size) with the aqueous suspension described above. As a control, plants are sprayed with an aqueous solution with no active substance. After 24 hours the plants are inoculated by spraying with an aqueous suspension of Pyrenophora teres spores (12,000 spores per ml). The spores are derived from a 12 day-old culture. […] After 12 days they are scored in comparison with the control plants.

[3] = physchem
[4] = tested on: Sphaerotheca fuliginea; assay: Example L: in vivo test on Sphaerotheca fuliginea (powdery mildew on cucumber/protective); conditions: Podosphaera fuliginea, 168 h, cucumber, protective, assessment 7 days after inoculation, read-out: % Wirkungsgrad
Outline: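 Young cucumber plants sprayed at stated dosage with compound in DMF/alkylaryl polyglycol ether emulsifier diluted in water; inoculated with S. fuliginea spores one day later. Kept in greenhouse at 70% relative humidity, 23° C; protective activity assessed 7 days after inoculation.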

[5] = tested on: Alternaria solani; assay: Example M: in vivo test on Alternaria solani (leaf blotch disease/tomato/protective); conditions: 168 h, tomato, protective, 500 ppm active substance, assessed 7 days after inoculation, read-out: % Wirkungsgrad (activity level)
Outline: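 Protective test: young tomato plants sprayed with active substance (in DMF with alkylaryl polyglycol ether emulsifier, diluted in water) at the stated dosage, then inoculated with Alternaria solani. Disease assessed 7 days after inoculation.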

[6] = tested on: Venturia inaequalis; assay: Example O: in vivo test on Venturia inaequalis (apple scab/protective); conditions: 240 h, protective, assessment 10 days after inoculation, read-out: % Wirkungsgrad
Outline: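 Protective test: active substance mixed with solvent and alkylaryl polyglycol ether emulsifier, diluted with water, and sprayed on young plants at the stated dosage before Venturia inaequalis inoculation. Scab assessed 10 days after inoculation.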

[7] = tested on: Botrytis cinerea; assay: Example P: in vivo test on Botrytis cinerea (gray mould on bean/protective); conditions: 48 h, bean, protective, 250 ppm active substance, assessed 2 days after inoculation, read-out: % Wirkungsgrad (activity level)
Outline: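 Protective test: young bean plants sprayed with the active substance preparation (emulsifier-based concentrate diluted in water) at the stated dosage. Once dry, each leaf received 2 agar pieces bearing Botrytis cinerea. Infection blotch size assessed 2 days after inoculation.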

[8] = tested on: Leptosphaeria nodorum; assay: Example Q: in vivo test on Leptosphaeria nodorum (glume blotch in wheat/protective); conditions: Parastagonospora nodorum, 192 h, wheat, protective, assessment 8 days after inoculation, read-out: % Wirkungsgrad
Method: (§1) Solvent: 49 parts by weight N,N-dimethylacetamide Emulsifier: 1 part by weight alkylaryl polyglycol ethers For the preparation of a suitable active substance preparation, 1 part by weight of active substance is mixed with the stated quantities of solvent and emulsifier and the concentrate is diluted to the desired concentration with water. For the testing for protective activity, young plants are sprayed with the active substance preparation at the stated application dosage. After drying of the spray coating, the plants are sprayed with spores with a spore suspension of Leptosphaeria nodorum. […] 8 days after the inoculation, the assessment takes place.

[9] = tested on: Septoria tritici; assay: Example R: in vivo test on Septoria tritici (leaf blotch in wheat/protective); conditions: Zymoseptoria tritici, 504 h, wheat, protective, 1000 ppm active substance, assessed 21 days after inoculation, read-out: % Wirkungsgrad (activity level)
Method: as §1, with “with” for “with spores with”, “Septoria tritici.” for “Leptosphaeria nodorum.”, “21” for “8”

[10] = tested on: Rhynchosporium secalis; assay: Example S: in vivo test on Rhynchosporium secalis (leaf scald in barley/protective); conditions: 336 h, barley, protective, 1000 ppm active substance, assessed 14 days after inoculation, read-out: % Wirkungsgrad (activity level)
Method: as §1, with “Rhynchosporium secalis.” for “Leptosphaeria nodorum.”, “14” for “8”

[11] = tested on: Fusarium nivale (var. majus); assay: whole plant or invertebrate; type: in vivo; conditions: Microdochium nivale, in Triticum aestivum, 120 h, read-out: % Wirkungsgrad (activity level)
[12] = tested on: Fusarium graminearum; assay: whole plant or invertebrate; type: in vivo; conditions: in Hordeum vulgare, 120 h, read-out: % Wirkungsgrad (activity level)
[13] = tested on: Fusarium proliferatum; assay: Example I: production of fumonisin FB1 by Fusarium proliferatum (microtitre plates); type: cell-based; conditions: 120 h
[14] = tested on: Fusarium graminearum; assay: microbe, parasite or virus in culture; type: cell-based
[15] = tested on: Plasmopara viticola; assay: Example N: in vivo test on Plasmopara viticola (downy mildew, vine/protective); conditions: 144 h, vine, protective, assessment 6 days after inoculation, read-out: % Wirkungsgrad
Outline: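 Protective test: young vine plants were sprayed with active substance diluted in water from a solvent/alkylaryl polyglycol ether emulsifier concentrate at the stated dosage, then inoculated with P. viticola. Plants were moistened and kept 1 day in an incubation cabin, and assessed 6 days after inoculation.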

[16] = tested on: Rhizoctonia solani; assay: Example W: in vivo test on Rhizoctonia solani (sheath blight in rice/protective); conditions: 96 h, rice, protective, 250 ppm active substance, assessed 4 days after inoculation, read-out: % Activity level
Method: Solvent: 28.5 parts by weight acetone Emulsifier: 1.5 parts by weight alkylaryl polyglycol ethers For the preparation of a suitable active substance preparation, 1 part by weight of active substance is mixed with the stated quantities of solvent and emulsifier and the concentrate is diluted to the desired concentration with water. For the testing for protective activity, young rice plants are sprayed with the active substance preparation at the stated application dosage. One day after the treatment, the plants are inoculated with hyphae of Rhizoctonia solani. […] 4 days after the inoculation, the assessment takes place.

[17] = tested on: Pyricularia oryzae; assay: whole plant or invertebrate; type: in vivo; conditions: 120 h, read-out: % Activity level
[18] = tested on: Aspergillus parasiticus; assay: microbe, parasite or virus in culture; type: cell-based; conditions: 168 h
[19] = LogPA (logP of the stated pure compound or, in a mixture, of the main isomer, 1-substituted 3-aryl-1H-pyrazole)
[20] = Fusarium proliferatum growth, OD 620, 5 days, read-out: % Inhibition des Pilzwachstums bei 50 μM
[21] = Fusarium proliferatum, 5 days at 20° C., HPLC-MS/MS, read-out: % Inhibition der FB1 produktion bei 50 μM
[22] = 72 h, read-out: % Inhibition des Pilzwachstums bei 50 μM
[23] = 168 h, read-out: % Inhibition der DON/AcDON produktion bei 50 μM

| SMILES | chromatographic logP [3, 19] | pest or weed control at 500 ppm [4] | pest or weed control at 500 ppm [5] | pest or weed control at 100 ppm [6] | pest or weed control at 250 ppm [7] | pest or weed control at 1000 ppm [8] | pest or weed control at 1000 ppm [9] | pest or weed control at 1000 ppm [10] | pest or weed control at 1000 ppm [11] | pest or weed control at 1000 ppm [12] | chromatographic logP ([3]; LogPA) | inhibition at 50 µM [13, 20] | inhibition at 50 µM [13, 21] | inhibition at 50 µM [14, 22] | inhibition at 50 µM [14, 23] | pest or weed control at 100 ppm [15] | further results |
| --- | --- | --- | --- | --- | --- | --- | --- | --- | --- | --- | --- | --- | --- | --- | --- | --- | --- |
| CC(C)Cn1ncc(-c2ccncc2)c1-c1ccc(F)cc1 [Compound 24] | 1.59 | – | – | – | – | – | – | – | – | – | – | – | – | – | – | – | pest or weed control at 500 ppm [1]: 88%; pest or weed control at 500 ppm [2]: 92% |
| CC(C)Cn1cc(-c2ccnc(N)n2)c(-c2ccc(F)cc2)n1 [Compound 184] | – | 95% | 95% | 92% | 100% | 88% | 100% | 71% | 100% | 100% | 1.81 | – | – | – | – | – | – |
| CC(C)=CCn1cc(-c2ccncc2)c(-c2c(F)cccc2F)n1 [Compound 7] | 1.69 | – | – | – | – | – | – | – | – | – | – | – | – | – | – | – | pest or weed control at 500 ppm [2]: 73% |
| CCC(=O)Nc1cc(-c2cn(CC3CC3)nc2-c2ccc(F)cc2)ccn1 [Compound 214] | – | 100% | 95% | 88% | 100% | 71% | 100% | 100% | 100% | 100% | 2.2 | 96% | 100% | 100% | 93% | 88% | – |
| CC(C)n1cc(-c2ccnc(NC(=O)[C@H](C)O)c2)c(-c2ccc(F)cc2)n1 [Compound 192] | – | 85% | 100% | 95% | 100% | 86% | 100% | 71% | 100% | 100% | 2.14 | – | – | – | – | 94% | – |
| Fc1ccc(-c2nn(CC(F)F)cc2-c2ccncc2)cc1 [Compound 169] | – | 89% | – | 99% | 100% | 100% | 100% | 100% | 71% | 100% | 1 | – | – | 101% | 100% | 96% | pest or weed control at 250 ppm [16]: 100% |
| CC(C)C(=O)Nc1cc(-c2cn(CC(F)F)nc2-c2ccc(F)cc2)ccn1 [Compound 218] | – | 100% | 95% | 95% | 98% | 93% | 100% | 100% | 92% | 100% | 2.29 | 79% | 100% | – | – | – | – |
| CC(C)=CCn1cc(-c2ccncc2)c(-c2ccc(F)cc2)n1 [Compound 30] | 2.11 | – | 90% | – | – | – | – | – | – | – | – | – | – | – | – | – | pest or weed control at 250 ppm [17]: 80%; pest or weed control at 250 ppm [16]: 95% |
| CCC(=O)Nc1cc(-c2cn(CC(F)F)nc2-c2ccc(F)cc2)ccn1 [Compound 215] | – | 100% | 94% | 96% | 98% | 71% | 94% | 90% | 100% | 100% | 1.99 | 94% | 100% | – | – | – | – |
| CC(C)C(=O)Nc1cc(-c2cn(CC3CC3)nc2-c2ccc(F)cc2)ccn1 [Compound 225] | – | 100% | 95% | 96% | 96% | 86% | 100% | 90% | 100% | 100% | 2.54 | 93% | 100% | 92% | 89% | 90% | – |
| CC(C)Cn1cc(-c2ccnc(NC(=O)C(C)C)c2)c(-c2ccc(F)cc2)n1 [Compound 87] | 2.89 | 100% | 95% | 95% | 100% | 88% | 100% | 88% | 92% | 100% | – | 83% | 100% | 97% | 100% | – | inhibition at 50 µM ([18]; 50 μM, 7 days at 20° C., read-out: Inhibition der Aflatoxin produktion bei 50 μM): 100%; inhibition at 50 µM ([18]; read-out: % Inhibition des Pilzwachstums bei 50 μM): 97% |
